Assay results from patent publication US20100041903A1, “Ozonized Surfactant” (ERC TECHNOLOGY INC., priority 2006, published 2010).

Experiments:
[1] = Surface-active property test (contact angle on polyvinyl chloride plate); assay type: physicochemical; details: Surfactant not subjected to ozone treatment; 1 wt % aqueous solution on polyvinyl chloride plate
Description: The surface-active properties of ozonized surfactants were determined in the following manner. 1 wt % of aqueous solutions of surfactants (Tween 80, polyethylene glycol 10 oleyl ether, and polyethylene glycol 20 oleyl ether (manufactured by Wako Pure Chemical Industries, Ltd.)) were prepared, and each of the solutions was dropped on a polyvinyl chloride plate to measure a contact angle (θ) using a contact angle meter CA-VP (manufactured by Kyowa Interface Science Co., Ltd.). The same measurement was carried out for the ozonized surfactants obtained in Examples 1, 2 and 4.

[2] = system: Cladosporium cladosporioides; experiment: Minimum inhibitory concentration test; assay type: cell-based; details: 96 H, 25° C., Sabouraud medium, 1 × 10^5/mL
Excerpt: (§1) In order to check the antibacterial and antifungal performance of the ozonized surfactant according to the present invention, bacteriostatic and bactericidal effects of the ozonized surfactant against five kinds of microorganisms were examined. The five kinds of target microorganisms were Staphyrococcus aureus as a prokaryotic gram-positive bacterium, Escherichia coli as a prokaryotic gram-negative bacterium, Saccharomyces cerevisiae and Trichophyton mentagrophytes as fungi which are eukaryotic microorganisms, and Cladosporium cladosporioides. One loopful of each strain was inoculated in a medium optimum for the strain, and cultured under culture conditions optimum for the strain to prepare a cell suspension for inoculation. […] 9 mL of each medium shown in Table 1 was dispensed into L-shaped test tubes for a biophotorecorder, and was then sterilized by steam. […] 0.1 mL of the cell suspension for inoculation was inoculated into the graduated dilution series to be tested (the initial number of cells of each microorganism is shown in Table 1). […] In the following tests, they were sterilized in the same manner. [table] […] Another graduated dilution series was prepared between the temporary minimum inhibitory concentration and the concentration of the ozonized surfactant nearest to the temporary minimum inhibitory concentration, at which turbidity occurred. Then, the same operation as described above was again carried out. […] It is to be noted that this MIC test against these five kinds of microorganisms was carried out also using, as a control, the surfactant solution not subjected to ozone treatment.

[3] = system: Escherichia coli; experiment: Minimum inhibitory concentration test; assay type: cell-based; details: 24 H, 30° C., Bouillon liquid medium, 1 × 10^7/mL
Excerpt: as §1

[4] = system: Saccharomyces cerevisiae; experiment: Minimum inhibitory concentration test; assay type: cell-based; details: 48 H, 28° C., YM liquid medium, 1 × 10^6/mL
Excerpt: as §1

[5] = system: Staphyrococcus aureus; experiment: Minimum inhibitory concentration test; assay type: cell-based; details: 24 H, 37° C., Bouillon liquid medium, 1 × 10^7/mL
Excerpt: as §1

[6] = system: Trichophyton mentagrophytes; experiment: Minimum inhibitory concentration test; assay type: cell-based; details: 96 H, 25° C., Sabouraud medium, 1 × 10^5/mL
Excerpt: as §1

Substance | Contact angle (θ) [1] | minimum inhibitory concentration [2] [% by weight] | minimum inhibitory concentration [3] [% by weight] | minimum inhibitory concentration [4] [% by weight] | minimum inhibitory concentration [5] [% by weight] | minimum inhibitory concentration [6] [% by weight]
polyethylene glycol 20 oleyl ether [Polyethylene glycol (20) oleyl ether] | 59.4 degree (°) | – | – | – | – | –
Polyethylene glycol 10 oleyl ether [Polyethylene glycol (10) oleyl ether] | 51.9 degree (°) | >1 | >1 | >1 | >1 | >1
